Results as given in US9260444B2, “Crystalline form of 2-((1′-n-hexyloxy) ethyl)-2-divinyl-pyropheophorbide-a and method for preparing thereof” (Zhejiang Hisun Pharmaceutical Co., Ltd., priority 2012, dated 2016).

Assays:
[1] = Accelerated stability experiment of the HPPH crystal; type: physicochemical; details: for Total impurity (%) / Content (based on dry weight, %): Temp 40° C. ± 2° C., Humidity 75% ± 5%; for Content (based on dry weight, %): standard content 98.0% to 102.0%
Procedure: (§1) According to the Guidelines to the stability studies of active pharmaceutical ingredient and pharmaceutical preparation (Chinese Pharmacopoeia, 2010 Edition, the Second Part, Appendix XIX C) (Appendix 199 to 200), selecting the HPPH crystal sample prepared in Embodiment 1 (Lot No. S111101), mimicking pack to selling, placing in an incubator at the temperature of 40° C.±2° C., and the relative humidity of 75%±5%, after 6 months, taking the sample out, and examining it with the key examination items for stability, then comparing the examination results with the results obtained in the 0 month.

[2] = Long term stability experiment of the HPPH crystal; type: physicochemical; details: for Total impurity (%) / Content (based on dry weight, %): Temp 25° C. ± 2° C., Humidity 60% ± 5%; for Content (based on dry weight, %): standard content 98.0% to 102.0%
Procedure: as §1, with “placing it” for “placing”, “25°” for “40°”, “60%±5%,” for “75%±5%,”

[3] = test system: esophageal cancer; details: cited from earlier work

| Substance | Content in the 6 month sample versus 0 month ([1]; 40° C. ± 2° C., relative humidity 75% ± 5%, after 6 months) | Total impurity (%) ([1]; 0 month) | Content (based on dry weight, %) ([1]; 0 month) | Total impurity (%) ([1]; 6 months) | Content (based on dry weight, %) ([1]; 6 months) | Change of key stability examination items versus 0 month ([2]; 25° C. ± 2° C., relative humidity 60% ± 5%, after 6 months) | Total impurity (%) ([2]; 0 month) | Content (based on dry weight, %) ([2]; 0 month) | Total impurity (%) ([2]; 6 months) | Content (based on dry weight, %) ([2]; 6 months) | Photodynamic therapeutic efficacy ([3]; 5 esophageal cancer patients, very low dose) | Photosensitive side effect of skin ([3]; clinical observation, esophageal cancer patients) |
| --- | --- | --- | --- | --- | --- | --- | --- | --- | --- | --- | --- | --- |
| 2-((1′-n-hexyloxy)ethyl)-2-divinyl-pyropheophorbide-a [HPPH crystal] | slightly lower, yet still within the acceptable range | 0.25% | 99.9% | 0.27% | 98.9% | no examination item has shown significant change | 0.25% | 99.9% | 0.26% | 99.8% | – | – |
| 2-((1′-n-hexyloxy)ethyl)-2-divinyl-pyropheophorbide-a [HPPH] | – | – | – | – | – | – | – | – | – | – | very good photodynamic therapeutic efficacy | no photosensitive side effect of skin has been observed |
